Experimental data taken from ChEMBL document CHEMBL4808184, “Discovery and Optimization of DNA Gyrase and Topoisomerase IV Inhibitors with Potent Activity against Fluoroquinolone-Resistant Gram-Positive Bacteria” (J Med Chem, 2021).
Converted amounts (≈) assume the structure as drawn.

What was measured:
Staphylococcus aureus [1] = assay: microbe, parasite or virus in culture; conditions: ATCC 49951
physchem [2] = conditions: octanol/water, pH 7.4
HepG2 = assay: cells; conditions: Homo sapiens, HepG2, 72 h
K562 = assay: cells; conditions: Homo sapiens, K562, 72 h
physchem [3] = assay: physchem
Staphylococcus aureus [4] = assay: microbe, parasite or virus in culture; conditions: ATCC 49951; remark: listed apart in the source
Streptococcus pneumoniae = assay: microbe, parasite or virus in culture; conditions: ATCC 49619
in vivo [5] = conditions: mouse, po, 5 mg/kg
in vivo [6] = conditions: rat, 5 mg/kg
in vivo [7] = conditions: dog, po, 1 mg/kg
in vitro [8] = conditions: human, Caco-2
Enterococcus faecalis = assay: microbe, parasite or virus in culture; conditions: ATCC 29212
in vivo [9] = conditions: mouse, po, 5 mg/kg; remark: listed apart in the source
in vivo [10] = conditions: rat, po, 5 mg/kg
in vivo [11] = conditions: mouse, 5 mg/kg
in vivo [12] = conditions: mouse, po, 5 mg/kg; remark: listed apart in the source
in vivo [13] = conditions: mouse, po, 5 mg/kg; remark: listed apart in the source
in vivo [14] = conditions: rat, po, 5 mg/kg; remark: listed apart in the source
in vitro [15] = conditions: human, plasma
in vivo [16] = conditions: mouse, iv
in vivo [17] = conditions: dog, po, 1 mg/kg; remark: listed apart in the source
in vitro [18] = conditions: CD1, mouse, plasma
in vivo [19] = conditions: rat, po, 5 mg/kg; remark: listed apart in the source
physchem [20] = conditions: buffer, pH 7
in vivo [21] = conditions: rat, 5 mg/kg; remark: listed apart in the source
in vivo [22] = conditions: dog, po, 1 mg/kg; remark: listed apart in the source
in vitro [23] = conditions: human, Caco-2; remark: listed apart in the source
in vivo [24] = conditions: dog, iv, 0.125 mg/kg
in vitro [25] = conditions: Sprague-Dawley, rat, plasma
in vivo [26] = conditions: dog, 1 mg/kg
in vivo [27] = conditions: rat, iv
Staphylococcus aureus [28] = assay: microbe, parasite or virus in culture; conditions: ATCC 49951; remark: listed apart in the source
in vivo [29] = conditions: rat, po, 5 mg/kg; remark: listed apart in the source
hERG (KCNH2) = hERG (KCNH2) (Homo sapiens, UniProt Q12809); assay: in vitro; conditions: CHO-K1 cells expressing human ERG
Chain of hERG (KCNH2) (Q12809 whole entry): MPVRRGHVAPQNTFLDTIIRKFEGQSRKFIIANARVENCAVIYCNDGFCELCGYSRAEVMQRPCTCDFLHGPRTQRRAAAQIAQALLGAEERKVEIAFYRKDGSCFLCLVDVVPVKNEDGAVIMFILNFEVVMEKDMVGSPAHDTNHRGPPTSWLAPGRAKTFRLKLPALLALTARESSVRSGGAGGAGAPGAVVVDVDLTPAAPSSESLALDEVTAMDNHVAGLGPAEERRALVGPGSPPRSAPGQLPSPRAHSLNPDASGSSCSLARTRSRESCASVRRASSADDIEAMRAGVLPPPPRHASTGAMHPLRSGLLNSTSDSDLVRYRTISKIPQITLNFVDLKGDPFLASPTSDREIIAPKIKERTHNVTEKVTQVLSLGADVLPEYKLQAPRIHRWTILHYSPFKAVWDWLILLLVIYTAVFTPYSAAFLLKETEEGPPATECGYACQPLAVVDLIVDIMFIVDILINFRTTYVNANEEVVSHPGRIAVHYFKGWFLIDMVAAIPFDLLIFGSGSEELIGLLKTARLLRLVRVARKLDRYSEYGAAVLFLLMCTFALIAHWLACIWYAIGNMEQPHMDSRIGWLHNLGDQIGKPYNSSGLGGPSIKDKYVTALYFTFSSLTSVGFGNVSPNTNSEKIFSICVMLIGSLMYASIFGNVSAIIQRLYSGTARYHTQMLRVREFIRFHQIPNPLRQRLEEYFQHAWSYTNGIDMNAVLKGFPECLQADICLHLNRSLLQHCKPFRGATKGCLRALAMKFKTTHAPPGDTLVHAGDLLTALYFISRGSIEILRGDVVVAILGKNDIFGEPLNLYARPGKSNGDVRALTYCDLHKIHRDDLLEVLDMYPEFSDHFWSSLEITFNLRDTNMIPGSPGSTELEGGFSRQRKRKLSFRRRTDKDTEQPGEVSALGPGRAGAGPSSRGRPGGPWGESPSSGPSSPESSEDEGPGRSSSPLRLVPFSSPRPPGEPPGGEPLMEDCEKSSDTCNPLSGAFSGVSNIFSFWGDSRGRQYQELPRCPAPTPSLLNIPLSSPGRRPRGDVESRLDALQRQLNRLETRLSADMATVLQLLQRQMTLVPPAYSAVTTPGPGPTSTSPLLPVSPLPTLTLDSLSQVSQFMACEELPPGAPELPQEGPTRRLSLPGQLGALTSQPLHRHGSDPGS

in vivo [30] = conditions: rat, po, 3 mg/kg
in vivo [31] = conditions: rat, po, 3 mg/kg; remark: listed apart in the source
in vivo [32] = conditions: rat, iv, 1 mg/kg
physchem [33] = assay: physchem; remark: listed apart in the source

Cc1c(N2CC3CC3(N)C2)c(F)cc2c(CN)cc(=O)n(C3CC3)c12 (centres undefined)
MIC (Staphylococcus aureus [1]): 0.125 µg/mL (≈ 0.365 µM)
logD (physchem [2]): 1.1
EC50 (HepG2): 82 µM
EC50 (K562): 40 µM
pKa (physchem [3]): 7.6

COc1c(N2C[C@@H]3CCCN[C@@H]3C2)c(F)cc2c(=O)c(C(=O)O)cn(C3CC3)c12 [MOXIFLOXACIN]
MIC (Staphylococcus aureus [4]): 0.06 µg/mL (≈ 0.149 µM)
MIC (Staphylococcus aureus [1]): 4 µg/mL (≈ 9.96 µM)
EC50 (HepG2): > 100 µM
EC50 (K562): > 100 µM
pKa (physchem [3]): 6.7

Cc1c(N2CC[C@@H]([C@H](C)N)C2)c(F)cc2cc(O)c(=O)n(C3CC3)c12
MIC (Staphylococcus aureus [1]): 0.5 µg/mL (≈ 1.45 µM)
EC50 (HepG2): 74 µM
EC50 (K562): 65 µM
pKa (physchem [3]): 8.2

C[C@H]1COc2c(N3CC[C@@H](C4(N)CC4)C3)c(F)cc3cc(C(=O)O)c(=O)n1c23
MIC (Streptococcus pneumoniae): 0.06 µg/mL (≈ 0.155 µM)
bioavailability at 24 h (in vivo [5]): 92%
Vd at 24 h (in vivo [6]): 1.09 L/kg
Cmax at 24 h (in vivo [7]): 1350 nM
efflux ratio (in vitro [8]): 0.9
MIC (Enterococcus faecalis): 0.25 µg/mL (≈ 0.645 µM)
AUC(0-inf) at 24 h (in vivo [9]): 4.3 µM·h
Tmax at 24 h (in vivo [10]): 2.7 h
MIC (Staphylococcus aureus [4]): 0.25 µg/mL (≈ 0.645 µM)
Vd at 24 h (in vivo [11]): 1.88 L/kg
Tmax at 24 h (in vivo [12]): 2 h
Cmax at 24 h (in vivo [13]): 490 nM
Cmax at 24 h (in vivo [14]): 1350 nM
fraction unbound at 4 h, 10 µM (in vitro [15]): 0.76
MIC (Staphylococcus aureus [1]): 2 µg/mL (≈ 5.16 µM)
half-life at 24 h (in vivo [16]): 3.36 h
AUC(0-inf) at 24 h (in vivo [17]): 19 µM·h
logD (physchem [2]): -0.9
fraction unbound at 4 h, 10 µM (in vitro [18]): 0.87
bioavailability at 24 h (in vivo [19]): 65%
solubility at 24 h (physchem [20]): 1270 µg/mL (≈ 3270 µM)
EC50 (HepG2): > 100 µM
EC50 (K562): > 100 µM
clearance at 24 h (in vivo [21]): 3.26 mL/min/kg
Tmax at 24 h (in vivo [22]): 4 h
Papp A→B at 2 h, 10 µM (in vitro [23]): 20 ×10⁻⁶ cm/s
half-life at 24 h (in vivo [24]): 9.95 h
fraction unbound at 4 h, 10 µM (in vitro [25]): 0.63
pKa (physchem [3]): 4.9
Vd at 24 h (in vivo [26]): 1.91 L/kg
half-life at 24 h (in vivo [27]): 4.64 h
MIC (Staphylococcus aureus [28]): 0.5 µg/mL (≈ 1.29 µM)
AUC(0-inf) at 24 h (in vivo [29]): 8.68 µM·h
inhibition at 300 µM (hERG (KCNH2)): 27%

Cc1c(N2CC[C@@H]([C@H](C)N)C2)c(F)cc2ccc(=O)n(C3CC3)c12
MIC (Streptococcus pneumoniae): ≤ 0.03 µg/mL
MIC (Enterococcus faecalis): 0.125 µg/mL (≈ 0.379 µM)
MIC (Staphylococcus aureus [4]): ≤ 0.06 µg/mL
MIC (Staphylococcus aureus [1]): 0.06 µg/mL (≈ 0.182 µM)
EC50 (HepG2): 93 µM
pKa (physchem [3]): 9.6
MIC (Staphylococcus aureus [28]): ≤ 0.03 µg/mL

Cc1c(N2CC[C@@H]([C@H](C)N)C2)c(F)cc2cc(C(=O)O)c(=O)n(C3CC3)c12
MIC (Streptococcus pneumoniae): 0.015 µg/mL (≈ 0.0402 µM)
MIC (Enterococcus faecalis): 0.25 µg/mL (≈ 0.669 µM)
MIC (Staphylococcus aureus [4]): 0.125 µg/mL (≈ 0.335 µM)
fraction unbound at 4 h, 10 µM (in vitro [15]): 0.54
MIC (Staphylococcus aureus [1]): 2 µg/mL (≈ 5.36 µM)
fraction unbound at 4 h, 10 µM (in vitro [18]): 0.66
EC50 (HepG2): > 100 µM
EC50 (K562): > 100 µM
fraction unbound at 4 h, 10 µM (in vitro [25]): 0.54
pKa (physchem [3]): 5.2
MIC (Staphylococcus aureus [28]): 2 µg/mL (≈ 5.36 µM)

C[C@H]1COc2c(N3CC4CC(F)(F)C[C@@H](N)[C@H]4C3)c(F)cc3cc(C(=O)O)c(=O)n1c23 (single isomer, unassigned)
MIC (Staphylococcus aureus [4]): ≤ 0.03 µg/mL
fraction unbound at 4 h, 10 µM (in vitro [15]): 0.18
MIC (Staphylococcus aureus [1]): 0.06 µg/mL (≈ 0.137 µM)
Tmax at 24 h (in vivo [30]): 2 h
logD (physchem [2]): -0.26
fraction unbound at 4 h, 10 µM (in vitro [18]): 0.41
Cmax at 24 h (in vivo [31]): 1700 nM
fraction unbound at 4 h, 10 µM (in vitro [25]): 0.42
pKa (physchem [3]): 5.1
half-life at 24 h (in vivo [32]): 3.46 h

Cc1c(N2CCC(C3(N)CC3)C2)c(F)cc2c(Cc3n[nH]c(=O)o3)cc(=O)n(C3CC3)c12 (centres undefined)
Vd at 24 h (in vivo [6]): 1.3 L/kg
Tmax at 24 h (in vivo [10]): 0.5 h
MIC (Staphylococcus aureus [4]): 1 µg/mL (≈ 2.28 µM)
Cmax at 24 h (in vivo [14]): 51 nM
fraction unbound at 4 h, 10 µM (in vitro [15]): 0.27
MIC (Staphylococcus aureus [1]): 0.5 µg/mL (≈ 1.14 µM)
logD (physchem [2]): 0.24
fraction unbound at 4 h, 10 µM (in vitro [18]): 0.4
bioavailability at 24 h (in vivo [19]): 14.9%
pKa (physchem [33]): 7.2
fraction unbound at 4 h, 10 µM (in vitro [25]): 0.15
half-life at 24 h (in vivo [27]): 0.99 h
AUC(0-inf) at 24 h (in vivo [29]): 0.12 µM·h
